Values of other authors as cited in publication PMC9981747, “A covalent BTK ternary complex compatible with targeted protein degradation” (Nature Communications, 2023).

Legend:
[1] = parameters: method as in PMID 27274052; settings: cited from earlier work
[2] = parameters: method as in PMID 31879210; settings: 1 mg/kg IV; cited from earlier work

SMILES | concentrations in sub-chronic tumor growth inhibition study ([1]; in 4 of 8 rodents tested) | Cmax ([1]; single 10 mg/kg sc dose, read-out: plasma Cmax) | exposure [2]
Cc1ncsc1-c1ccc([C@H](C)NC(=O)[C@@H]2C[C@@H](O)CN2C(=O)[C@@H](NC(=O)COCCCOCCNC(=O)C[C@@H]2N=C(c3ccc(Cl)cc3)c3c(sc(C)c3C)-n3c(C)nnc32)C(C)(C)C)cc1 [ARV-771] | > 2 µM | ~1700 nM | 
Nc1ncnc2c1c(-c1ccc(Oc3ccccc3)cc1)nn2C1CCN(CCOCCOCCOc2ccc3c(c2)CN(C2CCC(=O)NC2=O)C3=O)CC1 (stereo not drawn) [SJF620] |  |  | micromolar exposures
